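Cultured in 96-well plates, cells were exposed to test compound for 48 hours across five concentrations. GI50: concentration for 50% inhibition of growth. The concentration for full growth arrest is given as TGI.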

The results in this text go back to PubChem BioAssay (NCI).

Among the test systems are SF-539 CNS; MCF7 breast; NCI-H460 lung; HCT-15 colon; HL-60(TB) leukemia; ACHN renal; MOLT-4 leukemia; SR leukemia; A498 renal; CCRF-CEM leukemia.
Experiment in all cases: NCI tumour cell line growth inhibition, 48 h

With `COc1cc(OC)cc(-c2n/c(=C\c3c(O)[nH]c4ccc(OC)cc34)cc3c2=Nc2ccccc2-3)c1`, the GI50 was 10.4 µM in the test with SF-539 CNS; 1.4 µM in the test with MCF7 breast; 2.36 µM in the test on NCI-H460 lung; 3.85 µM with HCT-15 colon; 16.6 µM with HL-60(TB) leukemia; over 100 µM in the test with ACHN renal. The GI50 in the test with MOLT-4 leukemia is 2.56 µM; with SR leukemia it was 2.76 µM; with A498 renal, 14.8 µM; with CCRF-CEM leukemia, 2.78 µM. Moreover, the TGI was 25.4 µM with SF-539 CNS; 3.41 µM with MCF7 breast; 5.62 µM in the test on NCI-H460 lung; 15 µM in the test with HCT-15 colon; 36.2 µM with HL-60(TB) leukemia; over 100 µM in the test with ACHN renal. Moreover, the TGI with MOLT-4 leukemia came to 6.36 µM; with SR leukemia, 10.6 µM; in the test on A498 renal, 34 µM; in the test with CCRF-CEM leukemia it was 12.2 µM.
Take `NC(CCOCCP(=O)(O)O)C(=O)O` (stereo not drawn): the TGI in the test on SF-539 CNS, with MCF7 breast, in the test with NCI-H460 lung, in the test with HCT-15 colon, in the test with HL-60(TB) leukemia and in the test with ACHN renal was over 100 µM in each case. The TGI in the test with MOLT-4 leukemia, with SR leukemia and in the test with CCRF-CEM leukemia was over 100 µM throughout.
With `COc1c2c(c3ccccc3c1O)C1C=CC2C1` (stereo not drawn), the TGI in the test with SF-539 CNS is 29 µM; with NCI-H460 lung, 34 µM; with HCT-15 colon, 22 µM; in the test with ACHN renal it was 27.5 µM; in the test with MOLT-4 leukemia it was 47.2 µM; in the test on SR leukemia, 68.4 µM. For the same compound, the TGI with CCRF-CEM leukemia was determined as 97.6 µM.
On to `O=C(N/N=C\c1ccc(N(CCCl)CCCl)cc1[N+](=O)[O-])c1cccnc1`, for which the GI50 in the test with SF-539 CNS, in the test with MCF7 breast, in the test with NCI-H460 lung, in the test on HCT-15 colon, in the test with HL-60(TB) leukemia and in the test with ACHN renal was over 100 µM throughout. Moreover, the GI50 in the test with MOLT-4 leukemia, with SR leukemia, in the test on A498 renal and in the test on CCRF-CEM leukemia was over 100 µM throughout. For the same compound, the TGI in the test with SF-539 CNS, with MCF7 breast, in the test on NCI-H460 lung, in the test on HCT-15 colon, in the test with HL-60(TB) leukemia and in the test on ACHN renal was over 100 µM each time. The TGI in the test on MOLT-4 leukemia, in the test with SR leukemia, in the test with A498 renal and in the test with CCRF-CEM leukemia was over 100 µM each time.
Consider `CCN(CC)CCN1C(=O)c2c(c3c4ccccc4[nH]c3c3ccc4ccccc4c23)C1=O`, for which the GI50 is 1.7 µM with SF-539 CNS; 0.0836 µM with MCF7 breast; 1.08 µM in the test with NCI-H460 lung; 2.04 µM in the test on HL-60(TB) leukemia; 1.54 µM with ACHN renal; 0.666 µM in the test on MOLT-4 leukemia. The GI50 in the test on A498 renal was 1.32 µM. Besides, the TGI was found to be 3.08 µM in the test with SF-539 CNS; 1.96 µM in the test on MCF7 breast; 2.44 µM in the test on NCI-H460 lung; 4.35 µM in the test with HL-60(TB) leukemia; 2.87 µM with ACHN renal; 2.9 µM in the test with MOLT-4 leukemia. The compound also displayed a TGI in the test with A498 renal of 2.61 µM.
For `COC1=CC(=O)CC(C)C12Oc1c(Cl)c(OC)cc(OC)c1C2=O` (stereo not drawn), the TGI in the test on SF-539 CNS was 42.1 µM; with MCF7 breast it was over 100 µM; with NCI-H460 lung, over 100 µM; in the test with HCT-15 colon, over 100 µM; in the test on HL-60(TB) leukemia, over 44.1 µM; with ACHN renal, over 100 µM. Moreover, the TGI in the test on MOLT-4 leukemia is over 100 µM; with SR leukemia, over 28.2 µM; in the test on A498 renal it was over 93.8 µM; in the test with CCRF-CEM leukemia, 98.3 µM.
Consider `C=C1C(=O)O[C@@H]2[C@H](O)[C@@H](C)[C@@H]3C=CC(=O)[C@@]3(C)[C@@H](OC(=O)/C(C)=C/C)[C@H]12`, for which the TGI stood at 1.96 µM with SF-539 CNS; 5.15 µM in the test with MCF7 breast; 1.93 µM with NCI-H460 lung; 1.06 µM in the test with HCT-15 colon; 9.82 µM with HL-60(TB) leukemia; 2.09 µM in the test on MOLT-4 leukemia. The values for the TGI in the test on A498 renal and with CCRF-CEM leukemia were 6.88 µM and 2.05 µM, respectively.
For the compound `Cc1ccc(C2=C(C#N)C(N)OC3=C2COc2ccccc23)cc1` (stereo not drawn), the TGI in the test on SF-539 CNS, with MCF7 breast, in the test with NCI-H460 lung, with HCT-15 colon, with HL-60(TB) leukemia and in the test with ACHN renal was over 100 µM throughout. The TGI with MOLT-4 leukemia was over 100 µM; in the test on SR leukemia, over 100 µM; in the test with A498 renal, 50.2 µM; in the test on CCRF-CEM leukemia, 76 µM.
